Tested on: patients with medically-refractory coronary artery disease scheduled for coronary artery bypass surgery
Experiment: Prospective, longitudinal study of aspirin use within 48 hours of revascularization in coronary artery bypass surgery patients
Format: in vivo
Excerpt: A prospective, longitudinal study enrolled 5,436 patients. Eligible patients included those with medically-refractory coronary artery disease and scheduled for coronary artery bypass surgery at 70 medical institutions among 17 countries in North and South America, Europe, the Middle East and Asia. At each institution, 100 patients were to be prospectively enrolled according to a systematic sampling scheme that allowed a random sampling of patients at each institution among all patients undergoing surgery at that institution.
Of the 5,436 patients enrolled, 5,065 patients completed the study and were included in the final analysis. Of the 371 patients excluded, 32 were excluded due to patient withdrawal, 2 due to death prior to surgery, 97 due to cancellation or rescheduling of surgery, 132 patients due to change in procedure, 11 due to inadvertent enrollment in another study, 86 due to incomplete data and 11 due to incomplete blood sampling, shipping or storage.
Aspirin was administered in doses of 160 mg to 650 mg to 3,001 patients within 48 hours of revascularization. All potential side-effects associated with aspirin use were recorded daily by blinded investigators. Independent investigators coded all medications received-including pro- and anti-thrombotic and pro- and anti-coagulant medications, and blood products—by day throughout hospitalization, as well as at admission and at discharge, or until death.
For each enrolled patient, approximately 7,500 fields of data were collected throughout the patient's index hospitalization, from admission until discharge, by independent investigators; treated physicians were blinded to all research data. Data included demographic, historical, clinical, laboratory, eloectrocardiographic, specialized testing, resource utilization, and adverse outcomes. Following last patient enrollment, all data fields for each patient were queried centrally for completeness and accuracy, with all changes documented prior to database closure.
All outcomes were prespecified, defined by protocol, and discerned by investigators blinded to treatment group. Fatal and non-fatal outcomes were classified as cardiac (myocardial infarction, congestive heart failure and cardiac death), cerebral (stroke, encephalopathy and cerebral death), renal (dysfunction, failure and renal death), gastrointestinal (ischemia, infarction and GI death), or other (such as infectious, pulmonary). The diagnosis of myocardial infarction required either: the development of new Q waves (as defined by Minnesota Code 1-1-1I or 1I-2-7); or new persistent S T-segment or T-wave changes (Minnesota Code 4-1,4-2, 5-1 or 5-2) associated with an elevation of CK-MB isoenzyme values; or autopsy evidence of acute myocardial infarction. The diagnosis of heart failure required either: the use of a ventricular assist device; or the use of continuous inotropic support for at least 24 hours; or autopsy evidence of heart failure. Cerebral outcomes were classified as: clinically diagnosed stroke or encephalopathy; or CT, MRI or autopsy evidence of a focal or global defect. Renal dysfunction was defined as: a serum creatinine ≧177 μmol/L accompanied by a ≧62 μmol/L rise over baseline; and renal failure was defined as dysfunction requiring dialysis, or autopsy evidence of renal failure. Gastrointestinal ischemia was defined as abdominal pain diagnosed as intestinal ischemia, or detected at exploration; infarction required bowel resection, or autopsy evidence of intestinal infarction.
The risk of death for aspirin taking versus control populations were compared using the Chi-Square test. Individual ischemic outcomes involving the heart, brain, kidney and gastrointestinal tract, and combined ischemic outcomes were compared using Fisher's Exact Test or the Chi-Square test as appropriate. Odds ratios and the 95% confidence intervals are presented with associated P values. […]

Compound | risks of dying and ischemic complications associated with platelet transfusion after reperfusion and prophylactic anti-fibrinolytics (FIG. 3A) | risk of dying during hospitalization (aspirin within 48 hours of revascularization, v. 5.9% without aspirin, P<0.0001) [%] | risk of non-fatal ischemic complications associated with the heart, brain, kidney or gastrointestinal tract (aspirin within 48 hours of revascularization, v. 24.5% without aspirin, P<0.0001) [%] | Odds Ratio, Multivariate Analyses for Morality (discontinuation of use (Table 3B)) | survival over the first 30 postsurgical days (early aspirin use, FIG. 2) | reduction in mortality (first use of aspirin 48 hours after surgery, not significant, P=0.534) [%] | Gastritis, % of patients (human, in vivo) [%] | Hemorrhage: Gastrointestinal tract bleeding, % of patients (human, in vivo) [%] | Hemorrhage: Other Source of Bleeding, % of patients (human, in vivo) [%] | Impaired Wound Healing, % of patients (human, in vivo) [%] | Infection, % of patients (human, in vivo) [%] | Return to operating room for bleeding, % of patients (human, in vivo) [%] | Odds Ratio, Multivariate Analyses for Morality (use at admission (Table 3B)) | Odds Ratio, Multivariate Analyses for Morality (use following revascularization, 95% CI 0.19-0.40, P <0.0001) | Odds Ratio, Multivariate Analyses for Morality (use prior to surgery (Table 3B)) | Length of hospitalization (versus 11.32±9.44 without aspirin, P<0.0001) | patients who died within 12 hours of surgery (versus 25 patients in the control group) | patients who died within 48 hours of surgery (versus 42 patients from the control group) | Odds Ratio, Multivariate Analyses for Morality (use over the week prior to revascularization, 95% CI 1.23-3.25, P 0.005)
CC(=O)Oc1ccccc1C(=O)O [Aspirin, aspirin] | substantially reduced, but did not eliminate these risks | 1.4 | 13.6 | 1.04 | Improved survival | 15 | 0.33 | 1.1 | 1.7 | 4.5 | 8.4 | 1.9 | 1.46 | 0.27 | 0.77 | 9.57±7.14 | none | one | 
CC(=O)CC(c1ccccc1)c1c(O)c2ccccc2oc1=O (stereo not shown) [Warfarin/coumadin, warfarin] |  |  |  |  |  |  |  |  |  |  |  |  |  |  |  |  |  |  | 2.00
